# Results reported in patent US10913744B2, “LRRK2 inhibitors and methods of making and using the same” (Dana-Farber Cancer Institute, Inc., priority 2015, dated 2021).
# Like-named read-outs stand apart in the source and are kept apart here.
# Assays:
# [1] = target: DYRK3 (Homo sapiens (Human), UniProt O43781); assay: Dundee profiling
# [2] = target: PKCγ (Homo sapiens (Human), UniProt P05129); assay: Dundee profiling
# [3] = target: JAK2 (JH1domain-catalytic) (Homo sapiens (Human), UniProt O60674); assay: KinomeScan; type: binding; conditions: 1 uM
# [4] = target: EPHB2 (Homo sapiens (Human), UniProt P29323); assay: KinomeScan; type: binding; conditions: 1 uM
# [5] = target: PRK2 (Homo sapiens (Human), UniProt Q16513); assay: Dundee profiling
# [6] = target: EGFR (T790M) (Homo sapiens (Human), UniProt P00533, T790M); assay: KinomeScan; type: binding; conditions: 1 uM
# [7] = target: ERK1 (Homo sapiens (Human), UniProt P27361); assay: Dundee profiling
# [8] = target: PRKR (Homo sapiens (Human), UniProt P19525); assay: KinomeScan; type: binding; conditions: 1 uM
# [9] = target: wild-type GFP-LRRK2 (Homo sapiens (Human), UniProt Q5S007); assay: Ser910/Ser935 phosphorylation immunoblot in HEK293 cells; type: cell-based; conditions: 90 min
# Description: (§1) FIG. 2A-2D show inhibition of LRRK2 by Compound 18. HEK293 cells stably expressing FIG. 2A: wild-type GFP-LRRK2, FIG. 2B: GFP-LRRK2[G2019S], FIG. 2C: GFP-LRRK2[G2019S+A2016T], and FIG. 2D: GFP-LRRK2[A2016T] were treated with dimethylsulfoxide (DMSO) or increasing concentrations of Compound 18 for 90 min (1 μM of LRRK2-IN-1 was used as a control). Cell lysates were subjected to immunoblotting for detection of LRRK2 phosphorylated at Ser910 and Ser935 and for total LRRK2.
# (§2) HEK293 and Swiss 3T3 cells were cultured in DMEM (Dulbecco's Modified Eagle's medium) supplemented with 10% FBS (fetal bovine serum), 2 mM glutamine and 1× penicillin/streptomycin solution. HEK-293 T-Rex cell lines were cultured in DMEM supplemented with 10% (v/v) FBS and 2 mM glutamine, lx penicillin/streptomycin solution, 15 μg/ml blastocidin and 100 μg/ml hygromycin. T-Rex cultures were induced to express the indicated protein by inclusion of 0.1 μg/ml doxycycline in the culture medium for 24-48 hr. […] Protein concentrations were determined following centrifugation of the lysate at 16,000×g at 4° C. for 20 minutes using the Bradford method with BSA as the standard. […]
# (§3) As there are no validated direct phosphorylation substrates of LRRK2, phosphorylation of Ser910 and Ser935, two residues whose phosphorylation is known to be dependent upon LRRK2 kinase activity, was monitored.
# [10] = target: GFP-LRRK2[G2019S] (Homo sapiens (Human), UniProt Q5S007, G2019S); assay: as above; type: cell-based; conditions: 90 min
# Description: as §1, §2, §3
# [11] = target: ASK1 (Homo sapiens (Human), UniProt Q99683); assay: Dundee profiling
# [12] = target: EGFR (L861Q) (Homo sapiens (Human), UniProt P00533, L861Q); assay: KinomeScan; type: binding; conditions: 1 uM
# [13] = target: SmMLCK (Homo sapiens (Human), UniProt Q15746); assay: Dundee profiling
# [14] = target: p38d MAPK (Homo sapiens (Human), UniProt O15264); assay: Dundee profiling
# [15] = target: PIM3 (Homo sapiens (Human), UniProt Q86V86); assay: Dundee profiling
# [16] = target: JNK3 (Homo sapiens (Human), UniProt P53779); assay: KinomeScan; type: binding; conditions: 1 uM
# [17] = target: ERK5 (Homo sapiens (Human), UniProt Q13164); assay: Dundee profiling
# [18] = target: EGFR (Homo sapiens (Human), UniProt P00533); assay: KinomeScan; type: binding; conditions: 1 uM
# [19] = target: HIPK1 (Homo sapiens (Human), UniProt Q86Z02); assay: Dundee profiling
# [20] = read-out: percent remaining enzymatic activity, I1, 1 μM
# [21] = read-out: percent remaining enzymatic activity, I10
# ERK5, sequence (Q13164 whole entry, looked up, species assumed): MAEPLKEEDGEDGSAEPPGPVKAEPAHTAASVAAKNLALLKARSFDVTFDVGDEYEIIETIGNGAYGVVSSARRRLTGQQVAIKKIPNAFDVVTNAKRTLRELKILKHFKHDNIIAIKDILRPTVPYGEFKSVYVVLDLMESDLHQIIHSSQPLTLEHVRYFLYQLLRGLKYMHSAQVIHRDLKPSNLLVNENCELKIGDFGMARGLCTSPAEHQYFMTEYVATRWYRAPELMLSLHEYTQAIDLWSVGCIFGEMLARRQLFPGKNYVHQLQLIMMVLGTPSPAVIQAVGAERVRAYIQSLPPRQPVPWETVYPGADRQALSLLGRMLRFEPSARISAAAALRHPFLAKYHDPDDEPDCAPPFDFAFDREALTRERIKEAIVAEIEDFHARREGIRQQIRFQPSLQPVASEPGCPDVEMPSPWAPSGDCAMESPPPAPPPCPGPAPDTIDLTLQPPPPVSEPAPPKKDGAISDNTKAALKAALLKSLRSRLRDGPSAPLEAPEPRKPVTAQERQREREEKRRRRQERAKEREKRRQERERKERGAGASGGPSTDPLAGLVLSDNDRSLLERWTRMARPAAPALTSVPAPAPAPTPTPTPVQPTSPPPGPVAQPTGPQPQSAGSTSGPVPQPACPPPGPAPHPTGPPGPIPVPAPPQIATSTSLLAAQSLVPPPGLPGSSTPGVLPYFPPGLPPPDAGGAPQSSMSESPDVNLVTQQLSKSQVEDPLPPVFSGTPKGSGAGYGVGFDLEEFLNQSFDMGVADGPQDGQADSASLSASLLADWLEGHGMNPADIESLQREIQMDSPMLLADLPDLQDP
# ERK1, sequence (P27361 whole entry, looked up, species assumed): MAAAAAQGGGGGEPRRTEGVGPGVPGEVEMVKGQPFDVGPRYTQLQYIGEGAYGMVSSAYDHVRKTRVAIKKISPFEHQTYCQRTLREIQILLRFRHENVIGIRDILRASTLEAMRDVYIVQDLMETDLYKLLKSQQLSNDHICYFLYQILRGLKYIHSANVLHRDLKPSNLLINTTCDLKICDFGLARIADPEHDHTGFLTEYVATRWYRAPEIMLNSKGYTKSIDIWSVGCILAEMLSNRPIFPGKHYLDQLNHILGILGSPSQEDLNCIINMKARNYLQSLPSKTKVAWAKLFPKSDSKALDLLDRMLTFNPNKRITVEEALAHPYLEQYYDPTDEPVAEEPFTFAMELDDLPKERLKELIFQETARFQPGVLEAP
# DYRK3, sequence (O43781 whole entry, species assumed): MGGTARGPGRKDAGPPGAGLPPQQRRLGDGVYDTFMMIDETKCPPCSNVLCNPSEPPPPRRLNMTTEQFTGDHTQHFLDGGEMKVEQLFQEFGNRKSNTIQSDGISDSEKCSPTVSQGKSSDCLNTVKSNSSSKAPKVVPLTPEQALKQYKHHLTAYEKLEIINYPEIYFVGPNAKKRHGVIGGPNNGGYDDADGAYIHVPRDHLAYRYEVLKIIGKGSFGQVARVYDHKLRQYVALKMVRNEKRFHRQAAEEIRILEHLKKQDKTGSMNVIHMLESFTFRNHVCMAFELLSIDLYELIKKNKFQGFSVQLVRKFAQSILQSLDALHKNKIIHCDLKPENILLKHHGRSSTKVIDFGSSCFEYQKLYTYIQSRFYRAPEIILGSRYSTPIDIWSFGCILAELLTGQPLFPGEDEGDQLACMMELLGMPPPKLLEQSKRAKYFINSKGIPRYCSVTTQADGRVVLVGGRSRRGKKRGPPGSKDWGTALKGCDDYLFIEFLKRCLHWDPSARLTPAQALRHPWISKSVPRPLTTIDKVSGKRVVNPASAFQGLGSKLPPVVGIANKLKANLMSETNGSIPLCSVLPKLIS
# p38d MAPK, sequence (O15264 whole entry): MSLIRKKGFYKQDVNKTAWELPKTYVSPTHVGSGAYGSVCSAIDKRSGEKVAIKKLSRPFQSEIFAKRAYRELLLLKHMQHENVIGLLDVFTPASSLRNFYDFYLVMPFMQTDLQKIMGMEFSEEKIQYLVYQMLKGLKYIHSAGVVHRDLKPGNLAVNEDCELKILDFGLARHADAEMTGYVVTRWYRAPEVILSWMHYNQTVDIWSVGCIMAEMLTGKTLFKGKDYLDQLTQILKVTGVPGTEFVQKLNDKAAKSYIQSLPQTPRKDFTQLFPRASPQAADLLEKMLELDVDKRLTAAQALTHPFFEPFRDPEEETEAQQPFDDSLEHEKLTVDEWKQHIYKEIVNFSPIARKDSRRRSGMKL
# HIPK1, sequence (Q86Z02 whole entry, looked up, species assumed): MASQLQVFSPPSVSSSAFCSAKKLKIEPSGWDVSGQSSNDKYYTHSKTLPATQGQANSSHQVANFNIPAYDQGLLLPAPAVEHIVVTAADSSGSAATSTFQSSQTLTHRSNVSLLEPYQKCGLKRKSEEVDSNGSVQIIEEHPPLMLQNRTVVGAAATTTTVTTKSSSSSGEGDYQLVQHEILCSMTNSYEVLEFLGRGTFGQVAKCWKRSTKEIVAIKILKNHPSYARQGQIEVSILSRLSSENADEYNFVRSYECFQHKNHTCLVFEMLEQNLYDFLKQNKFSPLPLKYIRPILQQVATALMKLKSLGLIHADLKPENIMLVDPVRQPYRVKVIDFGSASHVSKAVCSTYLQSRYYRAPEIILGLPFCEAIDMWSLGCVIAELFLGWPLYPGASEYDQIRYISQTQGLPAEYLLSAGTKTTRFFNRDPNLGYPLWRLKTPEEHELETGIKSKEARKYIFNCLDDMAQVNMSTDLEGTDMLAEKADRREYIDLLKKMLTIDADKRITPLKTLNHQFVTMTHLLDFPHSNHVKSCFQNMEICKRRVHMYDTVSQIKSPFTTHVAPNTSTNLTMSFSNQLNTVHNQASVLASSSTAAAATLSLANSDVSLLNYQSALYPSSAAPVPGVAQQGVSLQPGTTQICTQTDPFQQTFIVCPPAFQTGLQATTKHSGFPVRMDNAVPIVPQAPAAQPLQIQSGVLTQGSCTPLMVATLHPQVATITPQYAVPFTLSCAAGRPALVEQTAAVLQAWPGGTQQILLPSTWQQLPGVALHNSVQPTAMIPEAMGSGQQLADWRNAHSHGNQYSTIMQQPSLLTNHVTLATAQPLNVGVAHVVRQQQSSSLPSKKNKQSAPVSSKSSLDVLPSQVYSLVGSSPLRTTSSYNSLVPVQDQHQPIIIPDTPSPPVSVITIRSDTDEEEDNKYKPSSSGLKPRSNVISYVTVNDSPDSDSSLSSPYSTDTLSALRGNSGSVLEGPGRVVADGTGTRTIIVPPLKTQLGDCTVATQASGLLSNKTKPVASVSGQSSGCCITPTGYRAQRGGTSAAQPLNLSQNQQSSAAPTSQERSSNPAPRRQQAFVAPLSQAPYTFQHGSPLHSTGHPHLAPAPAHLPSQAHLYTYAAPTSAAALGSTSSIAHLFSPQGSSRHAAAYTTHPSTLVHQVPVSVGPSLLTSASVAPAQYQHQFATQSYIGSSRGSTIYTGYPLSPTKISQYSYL
# JNK3, sequence (P53779 whole entry, species assumed): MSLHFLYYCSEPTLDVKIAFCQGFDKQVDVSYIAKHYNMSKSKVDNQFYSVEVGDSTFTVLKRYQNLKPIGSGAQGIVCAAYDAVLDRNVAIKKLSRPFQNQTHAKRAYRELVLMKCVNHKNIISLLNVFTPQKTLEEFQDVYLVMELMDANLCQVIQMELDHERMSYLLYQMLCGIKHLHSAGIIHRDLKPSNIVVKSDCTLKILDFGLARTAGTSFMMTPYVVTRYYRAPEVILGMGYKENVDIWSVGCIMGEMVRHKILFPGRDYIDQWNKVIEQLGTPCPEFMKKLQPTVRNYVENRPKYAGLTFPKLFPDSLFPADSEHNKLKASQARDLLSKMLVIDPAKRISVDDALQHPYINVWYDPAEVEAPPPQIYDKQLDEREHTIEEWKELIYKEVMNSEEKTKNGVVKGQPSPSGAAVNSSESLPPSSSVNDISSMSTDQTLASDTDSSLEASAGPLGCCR
structure (smiles),measurement,setting,value
"CNc1nc(Nc2ccc(C(=O)N3CCOCC3)cc2OC)nc2[nH]cc(Cl)c12 [Compound 18, (4-((5-chloro-4-(methylamino)-7H-pyrrolo[2,3-d]pyrimidin-2-yl)amino)-3-methoxyphenyl)(morpholino)methanone]",remaining activity at 1 µM,[1]; [20],74%
same,remaining activity at 1 µM,[1]; [21],30%
same,remaining activity at 1 µM,[2]; [20],113%
same,remaining activity at 1 µM,[2]; [21],109%
same,KinomeScan value,[3],100
same,KinomeScan value,[4],98
same,remaining activity at 1 µM,[5]; [20],103%
same,remaining activity at 1 µM,[5]; [21],93%
same,KinomeScan value,[6],97
same,remaining activity at 1 µM,[7]; [20],107%
same,remaining activity at 1 µM,[7]; [21],68%
same,KinomeScan value,[8],96
same,concentration giving substantial dephosphorylation of Ser910 and Ser935,[9],approximately 0.3
same,concentration giving substantial dephosphorylation of Ser910 and Ser935,[10],approximately 0.3
same,remaining activity at 1 µM,[11]; [20],56%
same,remaining activity at 1 µM,[11]; [21],10%
same,KinomeScan value,[12],57
same,IC50,[13],81.3 nM
same,inhibition at 1 µM,[13]; read-out: inhibition of kinase activity of the DMSO control,> 90%
same,remaining activity at 1 µM,[13]; [20],9%
same,remaining activity at 1 µM,[13]; [21],1%
same,remaining activity at 1 µM,[14]; [20],107%
same,remaining activity at 1 µM,[14]; [21],102%
same,remaining activity at 1 µM,[15]; [20],96%
same,remaining activity at 1 µM,[15]; [21],75%
same,KinomeScan value,[16],67
same,remaining activity at 1 µM,[17]; [20],76%
same,remaining activity at 1 µM,[17]; [21],52%
same,KinomeScan value,[18],93
same,remaining activity at 1 µM,[19]; [20],95%
same,remaining activity at 1 µM,[19]; [21],44%
